Measured values reported in PMC12005229, “Final results from the phase Ia/Ib study of the novel bromodomain and extra-terminal domain inhibitor, BI 894999, in patients with advanced solid tumors or diffuse large B-cell lymphoma” (ESMO Open, 2025).
Read-outs that look alike come from different tables or passages of the source.

Assay: plasma pharmacokinetics, LC-MS/MS, noncompartmental analysis
Format: in vivo, human
Conditions: for Tmax / AUC(0-t) / Cmax: human, plasma, oral
Procedure: Samples were collected for PK analysis in cycle 1: 5 min pre-dose, 30 min, 1, 2, 3, 4, 6, and 8 h after drug administration on day 1 (schedules B and C) and on day 14 (for schedule B) or day 21 (for schedule C); 5 min pre-dose on days 8 and 12 (for schedule B) and at time of the visit on day 8 (168 h) for schedule C; 5 min pre-dose on day 18 (at time of the visit) for schedule B; and on day 22 (504 and 512 h) and day 29 (at time of the visit) for schedule C. For schedule B, a few additional samples were also taken in cycle 2: 5 min pre-dose, 2, 4, and 8 h on day 1, and 5 min pre-dose on day 2.
BI 894999 plasma concentrations were determined using a validated assay based on liquid chromatography coupled with tandem mass spectrometry. PK parameters were determined by noncompartmental analysis using the Phoenix WinNonlin software (Phoenix 6.3, Certara USA Inc., Princeton, NJ).

For CNc1nc(-c2nc3ccc(N4CCN(C)CC4)cc3n2Cc2ccccc2)cn2c(C)nnc12 [BI 894999], the Tmax (1.5 mg, phase Ia DLBCL, schedule B 1.5 mg, day 1, read-out: tmax median) was 2.02 h, the Tmax (1.5 mg, phase Ia DLBCL, schedule B 1.5 mg, day 14, read-out: tmax,ss median) was 2.56 h and the Tmax (2 mg, phase Ia DLBCL, schedule B 2.0 mg, day 1, read-out: tmax median) was 2.01 h. It also gave an AUC(0-t) (2 mg, phase Ia DLBCL, schedule B 2.0 mg, day 14, read-out: AUC0–24,ss gMean (gCV, %)) of 0.12 µM·h, a Tmax (2 mg, phase Ia DLBCL, schedule B 2.0 mg, day 14, read-out: tmax,ss median) of 2.12 h and a Tmax (2 mg, phase Ib solid tumors, schedule B 2.0 mg, day 1, read-out: tmax median) of 2 h. For the same molecule, the Tmax (2 mg, phase Ib solid tumors, schedule B 2.0 mg, day 14, read-out: tmax,ss median) was 2 h, the AUC(0-t) (2.5 mg, phase Ia DLBCL, schedule B 2.5 mg, day 1, read-out: AUC0–24 gMean (gCV, %)) was 0.0533 µM·h and the Tmax (2.5 mg, phase Ia DLBCL, schedule B 2.5 mg, day 1, read-out: tmax median) was 2.04 h. It also gave a Tmax (2.5 mg, phase Ib, schedule B 2.5 mg including NUT carcinoma, day 1, read-out: tmax median) of 2.01 h, an AUC(0-t) (2.5 mg, phase Ib, schedule B 2.5 mg including NUT carcinoma, day 14, read-out: AUC0–24,ss gMean (gCV, %)) of 0.125 µM·h and a Tmax (2.5 mg, phase Ib, schedule B 2.5 mg including NUT carcinoma, day 14, read-out: tmax,ss median) of 2 h. For the same molecule, the AUC(0-t) (4 mg, phase Ia DLBCL, schedule C 4.0/2.0 mg, day 1 after loading dose, read-out: AUC0–24 gMean (gCV, %)) was 0.138 µM·h, the Tmax (4 mg, phase Ia DLBCL, schedule C 4.0/2.0 mg, day 1 after loading dose, read-out: tmax median) was 2 h and the AUC(0-t) (6 mg, phase Ib, schedule C 6.0/3.0 mg NUT carcinoma only, day 1 after loading dose, read-out: AUC0–24 gMean (gCV, %)) was 0.214 µM·h. It also gave a Tmax (6 mg, phase Ib, schedule C 6.0/3.0 mg NUT carcinoma only, day 1 after loading dose, read-out: tmax median) of 2 h, an AUC(0-t) (phase Ib, schedule C 6.0/3.0 mg NUT carcinoma only, day 21, read-out: AUC0–24,ss gMean (gCV, %)) of 0.149 µM·h and a Tmax (phase Ib, schedule C 6.0/3.0 mg NUT carcinoma only, day 21, read-out: tmax,ss median) of 2.05 h. The Tmax (single dose day 1 and once-daily multiple doses days 14 or 21, read-out: median time to maximum plasma concentration (tmax)) was roughly 2 h, the Cmax (phase Ia DLBCL, schedule B 2.0 mg, day 14, read-out: Cmax,ss gMean (gCV, %)) was 7.67 nM and the Cmax (phase Ia DLBCL, schedule B 2.5 mg, day 1, read-out: Cmax gMean (gCV, %)) was 4.75 nM. For the same molecule, the “dose dependence of plasma concentrations” value (within a dosing schedule and indication) was “increased with increasing dose”.
